Test results from ChEMBL document CHEMBL1136242, “Arachidonylsulfonyl derivatives as cannabinoid CB1 receptor and fatty acid amide hydrolase inhibitors” (Bioorg Med Chem Lett, 2003).

Assays:
[1] = target: T1, Fatty-acid amide hydrolase 1 (Mus musculus, UniProt O08914); test: Inhibitory potency of Fatty-acid amide hydrolase with Mouse brain membrane
T1 sequence (O08914 whole entry): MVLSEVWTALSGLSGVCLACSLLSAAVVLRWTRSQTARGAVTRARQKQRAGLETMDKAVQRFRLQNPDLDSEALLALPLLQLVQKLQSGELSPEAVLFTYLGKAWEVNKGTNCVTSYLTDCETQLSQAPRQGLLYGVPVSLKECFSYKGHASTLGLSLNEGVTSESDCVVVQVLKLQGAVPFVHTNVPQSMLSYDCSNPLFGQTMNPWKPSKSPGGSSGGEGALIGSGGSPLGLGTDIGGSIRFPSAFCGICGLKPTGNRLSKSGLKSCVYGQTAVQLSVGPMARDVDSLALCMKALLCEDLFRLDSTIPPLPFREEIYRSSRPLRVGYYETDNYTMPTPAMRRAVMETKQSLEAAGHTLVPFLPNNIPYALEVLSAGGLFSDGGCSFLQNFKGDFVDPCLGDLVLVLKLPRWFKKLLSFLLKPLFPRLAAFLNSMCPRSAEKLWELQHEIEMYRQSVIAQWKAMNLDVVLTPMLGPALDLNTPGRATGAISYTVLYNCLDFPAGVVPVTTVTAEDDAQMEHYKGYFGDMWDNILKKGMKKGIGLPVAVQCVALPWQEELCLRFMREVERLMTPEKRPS

[2] = target: T1, Fatty-acid amide hydrolase 1; test: Inhibitory potency of Fatty-acid amide hydrolase with Mouse brain membrane in the presence of PMSF
Cannabinoid receptor 1 [3] = target: Cannabinoid receptor 1 (Mus musculus, UniProt P47746); test: Binding affinity towards Cannabinoid receptor 1 was determined using [3H]-CP- cannabinoid as radioligand with mouse brain membrane in the presence of PMSF
[4] = target: T2, Fatty-acid amide hydrolase 1 (Rattus norvegicus, UniProt P97612); test: Inhibitory potency of Fatty-acid amide hydrolase with rat brain membrane
T2 sequence (P97612 whole entry): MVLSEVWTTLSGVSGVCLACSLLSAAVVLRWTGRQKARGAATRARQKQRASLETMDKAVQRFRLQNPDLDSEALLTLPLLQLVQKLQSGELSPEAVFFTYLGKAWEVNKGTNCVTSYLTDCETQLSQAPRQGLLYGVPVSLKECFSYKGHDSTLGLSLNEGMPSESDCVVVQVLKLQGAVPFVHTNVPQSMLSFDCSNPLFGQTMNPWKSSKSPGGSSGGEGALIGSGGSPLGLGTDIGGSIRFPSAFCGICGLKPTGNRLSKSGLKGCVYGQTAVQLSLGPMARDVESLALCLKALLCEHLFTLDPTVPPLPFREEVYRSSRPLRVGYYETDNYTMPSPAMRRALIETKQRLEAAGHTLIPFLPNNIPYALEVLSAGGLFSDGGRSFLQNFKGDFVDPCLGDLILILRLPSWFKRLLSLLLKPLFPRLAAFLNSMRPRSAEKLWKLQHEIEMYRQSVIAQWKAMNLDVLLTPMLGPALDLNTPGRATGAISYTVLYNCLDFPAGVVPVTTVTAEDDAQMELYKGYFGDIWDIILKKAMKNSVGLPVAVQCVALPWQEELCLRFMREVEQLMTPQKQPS

Cannabinoid receptor 1 [5] = target: Cannabinoid receptor 1 (Rattus norvegicus, UniProt P20272); test: Binding affinity towards Cannabinoid receptor 1 was determined using [3H]-CP- cannabinoid as radioligand with rat brain membrane
Chain of Cannabinoid receptor 1 (Rattus norvegicus, UniProt P20272) (P20272 whole entry): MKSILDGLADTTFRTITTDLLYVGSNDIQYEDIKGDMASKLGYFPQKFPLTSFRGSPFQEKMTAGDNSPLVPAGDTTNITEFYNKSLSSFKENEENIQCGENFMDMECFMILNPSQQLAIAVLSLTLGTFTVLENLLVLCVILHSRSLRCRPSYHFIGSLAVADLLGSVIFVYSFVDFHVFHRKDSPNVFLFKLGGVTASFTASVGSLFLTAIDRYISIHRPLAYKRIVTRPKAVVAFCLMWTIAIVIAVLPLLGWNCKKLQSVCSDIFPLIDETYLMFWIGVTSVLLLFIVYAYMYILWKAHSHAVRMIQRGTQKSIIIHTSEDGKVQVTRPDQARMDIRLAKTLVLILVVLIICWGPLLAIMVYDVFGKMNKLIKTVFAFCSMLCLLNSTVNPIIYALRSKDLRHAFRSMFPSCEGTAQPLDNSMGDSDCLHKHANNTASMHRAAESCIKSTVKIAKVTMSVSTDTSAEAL

Chain of Cannabinoid receptor 1 (Mus musculus, UniProt P47746) (P47746 whole entry): as the sequence (P20272 whole entry) above, with E95D counted along it

SMILES | IC50 [1] [nM] | IC50 [2] [nM] | IC50 (Cannabinoid receptor 1 [3]) [nM] | IC50 [4] [nM] | IC50 (Cannabinoid receptor 1 [5]) [nM]
CCCCC/C=C\C/C=C\C/C=C\C/C=C\CCCCS(=O)(=O)F | 0.11 | – | – | – | –
CCCCC/C=C\C/C=C\C/C=C\C/C=C\CCCCS(=O)(=O)NCCO | – | ~10000 | > 100000 | – | –
CCCCCCCCCCCCS(=O)(=O)F [DODECANESULFONYL FLUORIDE] | 2 | – | – | 3 | 18
